{"source": "paper PMC9871744", "about": "(Cellular and Molecular Gastroenterology and Hepatology, 2022)", "type_in_all_cases": "cell-based", "key": {"[1]": {"tested_on": "mouse fungiform TBC", "assay": "Ca2+ signaling in mouse fungiform TBC", "conditions": "LA at 20 μmol/L"}, "[2]": {"tested_on": "Hela-9903 cells", "assay": "Cytotoxicity in the estrogen receptor reporter cells"}, "[3]": {"target": "T1, human estrogen receptor alpha (hERα) (Homo sapiens, UniProt P03372)", "T1 sequence (P03372 1-595)": "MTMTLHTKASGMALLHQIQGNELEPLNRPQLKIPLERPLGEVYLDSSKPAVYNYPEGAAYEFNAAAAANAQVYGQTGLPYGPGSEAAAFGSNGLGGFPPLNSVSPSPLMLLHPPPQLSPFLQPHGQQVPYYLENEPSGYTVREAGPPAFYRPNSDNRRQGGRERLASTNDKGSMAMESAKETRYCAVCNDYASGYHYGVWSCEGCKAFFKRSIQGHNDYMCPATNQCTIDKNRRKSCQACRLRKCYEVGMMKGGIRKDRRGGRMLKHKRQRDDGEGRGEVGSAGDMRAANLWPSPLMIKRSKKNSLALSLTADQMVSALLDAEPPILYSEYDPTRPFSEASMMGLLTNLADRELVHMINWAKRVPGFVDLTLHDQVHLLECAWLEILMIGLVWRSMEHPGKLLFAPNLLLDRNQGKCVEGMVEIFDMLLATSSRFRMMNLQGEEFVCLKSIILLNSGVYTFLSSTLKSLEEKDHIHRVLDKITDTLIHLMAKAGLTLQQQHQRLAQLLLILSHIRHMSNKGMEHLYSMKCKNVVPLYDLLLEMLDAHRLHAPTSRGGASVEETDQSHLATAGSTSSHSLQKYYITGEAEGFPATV", "assay": "Estrogen receptor transcriptional activation and inhibition assays"}}}
{"smiles": "CCCCC/C=C\\C/C=C\\CCCCCCCCP(=O)(OCC)OCC", "note": "[NKS-3, diethyl (9Z,12Z)-octadeca-9,12-dien-1-ylphosphonate]", "values": [{"measurement": "Ca2+ signaling compared with a dietary long-chain fatty acid", "setting": "[1]", "value": "higher"}, {"measurement": "cytotoxic concentrations", "setting": "[2]; Hela-9903 cells", "value": "≥ 10", "unit": "µmol/L"}, {"measurement": "highest non-cytotoxic concentration", "setting": "[2]; estrogen receptor assays", "value": 5, "unit": "µmol/L"}, {"measurement": "estrogenic or antiestrogenic potential (conclusion)", "setting": "[3]", "value": "did not exert an estrogenic or antiestrogenic potential"}]}
